Measurements as given in patent publication US9518052B2, “Pyrazolopyridines and pyrazolopyrimidines” (Pfizer Inc., priority 2014, dated 2016).
Counter-ions that a name gives are not always drawn.

Columns and labels:
[1] = biological target: JAK1 (Homo sapiens (Human), UniProt P23458); experiment: JAK Caliper Enzyme Assay at 1 mM ATP (JAK1); format: biochemical; details: Caliper assay at 1 mM ATP
[2] = biological target: TYK2 (Homo sapiens (Human), UniProt P29597); experiment: JAK Caliper Enzyme Assay at 1 mM ATP (TYK2); format: biochemical; details: Caliper assay at 1 mM ATP
Sequence of TYK2 (P29597 whole entry, species assumed): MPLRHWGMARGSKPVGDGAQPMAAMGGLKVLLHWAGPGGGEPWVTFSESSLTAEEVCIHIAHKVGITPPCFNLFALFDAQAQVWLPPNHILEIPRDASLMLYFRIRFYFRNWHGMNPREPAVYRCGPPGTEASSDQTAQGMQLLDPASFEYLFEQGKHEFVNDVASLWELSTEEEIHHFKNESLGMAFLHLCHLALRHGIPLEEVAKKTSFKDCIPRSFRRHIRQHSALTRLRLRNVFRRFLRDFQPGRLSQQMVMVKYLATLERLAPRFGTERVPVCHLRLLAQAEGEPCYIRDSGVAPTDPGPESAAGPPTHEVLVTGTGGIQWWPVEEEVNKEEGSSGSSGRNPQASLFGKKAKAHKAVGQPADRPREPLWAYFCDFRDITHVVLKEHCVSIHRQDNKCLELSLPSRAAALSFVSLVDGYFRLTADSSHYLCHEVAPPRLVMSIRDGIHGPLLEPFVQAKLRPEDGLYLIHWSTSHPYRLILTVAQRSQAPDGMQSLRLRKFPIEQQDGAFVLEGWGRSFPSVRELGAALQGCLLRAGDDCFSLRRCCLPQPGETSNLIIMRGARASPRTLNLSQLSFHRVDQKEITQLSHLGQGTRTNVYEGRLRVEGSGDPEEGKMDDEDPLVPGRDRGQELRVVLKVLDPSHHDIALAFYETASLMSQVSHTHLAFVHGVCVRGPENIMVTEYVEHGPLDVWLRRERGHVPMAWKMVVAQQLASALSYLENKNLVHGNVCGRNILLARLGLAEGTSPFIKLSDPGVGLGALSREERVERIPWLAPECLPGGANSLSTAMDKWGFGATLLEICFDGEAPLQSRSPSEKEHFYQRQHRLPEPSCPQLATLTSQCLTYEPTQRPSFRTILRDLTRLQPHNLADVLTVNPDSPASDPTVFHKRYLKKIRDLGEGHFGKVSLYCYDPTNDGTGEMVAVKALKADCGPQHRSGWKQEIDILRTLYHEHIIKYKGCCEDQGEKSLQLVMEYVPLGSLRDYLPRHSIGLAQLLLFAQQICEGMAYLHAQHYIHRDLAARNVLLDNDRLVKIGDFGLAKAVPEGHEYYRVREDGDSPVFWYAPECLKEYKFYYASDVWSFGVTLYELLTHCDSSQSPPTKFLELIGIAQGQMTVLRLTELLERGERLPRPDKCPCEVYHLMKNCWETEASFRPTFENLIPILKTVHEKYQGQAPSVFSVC

[3] = system: rhIFNγ stimulated STAT-3 phosphorylation in the A549 human epithelial cell line; experiment: A549 Cell Assay: Inhibition of pSTAT3; format: cell-based; details: A549 cells
Experimental: A549 Cell Assay: Inhibition of pSTAT3
An assay measuring the efficacy of JAK inhibitors on the functional response of recombinant human interferon γ (rhIFNγ) stimulated STAT-3 phosphorylation in the A549 human epithelial cell line.
A549 cells (ATCC #CCL-185), were plated at 30,000 cells/well in 96 well flat bottomed tissue culture plates (BD#353072) in 200 μL of growth medium (DMEM, Pfizer media prep, with 10% Fetal Bovine Serum, Sigma #F4135, 2 mM L-Glutamine, Pfizer media prep, 100 U/mL penicillin, Pfizer media prep, and 200 μg/ml streptomycin, Pfizer media prep), and cultured at 37° C., 5% CO2 incubator for 18 hours. Growth medium was removed by vacuum aspiration (V&P Scientific #vp187 bp-60), and 90 μL of pre-warmed assay medium (DMEM with 0.2% BSA, Miltenyi #130-091-376) was added to each well and incubated for 15 minutes at 37° C. 10 μL of vehicle control or test compound (final concentration range of 0.3 nM to 10 μM with 0.1% DMSO) was added to the cells. Plates were incubated at 37° C. for 1 hour. After compound incubation, 10 μL of 220 ng/mL recombinant human IFNγ (R&D Systems #285-IF, final rhIFNγ concentration of 20 ng/mL) was added to the cells and plates were incubated for 30 minutes at 37° C. Wells containing A549 cells, medium with 0.1% DMSO and no rhIFNγ were used as background controls. After rhIFNγ stimulation, media was aspirated from each well and 35 μL/well of iced-cold MSD lysis buffer containing protease and phosphatase inhibitors from Phospho-STAT3 Tyr705 assay kit (Meso-Scale Discovery #K150DID) was added to each well. Plates were incubated at 4° C. with shaking for 30 minutes. Cell lysates were assayed following the MSD Phospho-STAT3 Tyr705 assay kit protocol to detect pSTAT3.
Data were collected and transformed into percent inhibition and calculated using the following formula: […]

[4] = biological target: JAK2 (Homo sapiens (Human), UniProt O60674); experiment: JAK Caliper Enzyme Assay at 1 mM ATP (JAK2); format: biochemical; details: Caliper assay at 1 mM ATP
Sequence of JAK2 (O60674 whole entry, species assumed): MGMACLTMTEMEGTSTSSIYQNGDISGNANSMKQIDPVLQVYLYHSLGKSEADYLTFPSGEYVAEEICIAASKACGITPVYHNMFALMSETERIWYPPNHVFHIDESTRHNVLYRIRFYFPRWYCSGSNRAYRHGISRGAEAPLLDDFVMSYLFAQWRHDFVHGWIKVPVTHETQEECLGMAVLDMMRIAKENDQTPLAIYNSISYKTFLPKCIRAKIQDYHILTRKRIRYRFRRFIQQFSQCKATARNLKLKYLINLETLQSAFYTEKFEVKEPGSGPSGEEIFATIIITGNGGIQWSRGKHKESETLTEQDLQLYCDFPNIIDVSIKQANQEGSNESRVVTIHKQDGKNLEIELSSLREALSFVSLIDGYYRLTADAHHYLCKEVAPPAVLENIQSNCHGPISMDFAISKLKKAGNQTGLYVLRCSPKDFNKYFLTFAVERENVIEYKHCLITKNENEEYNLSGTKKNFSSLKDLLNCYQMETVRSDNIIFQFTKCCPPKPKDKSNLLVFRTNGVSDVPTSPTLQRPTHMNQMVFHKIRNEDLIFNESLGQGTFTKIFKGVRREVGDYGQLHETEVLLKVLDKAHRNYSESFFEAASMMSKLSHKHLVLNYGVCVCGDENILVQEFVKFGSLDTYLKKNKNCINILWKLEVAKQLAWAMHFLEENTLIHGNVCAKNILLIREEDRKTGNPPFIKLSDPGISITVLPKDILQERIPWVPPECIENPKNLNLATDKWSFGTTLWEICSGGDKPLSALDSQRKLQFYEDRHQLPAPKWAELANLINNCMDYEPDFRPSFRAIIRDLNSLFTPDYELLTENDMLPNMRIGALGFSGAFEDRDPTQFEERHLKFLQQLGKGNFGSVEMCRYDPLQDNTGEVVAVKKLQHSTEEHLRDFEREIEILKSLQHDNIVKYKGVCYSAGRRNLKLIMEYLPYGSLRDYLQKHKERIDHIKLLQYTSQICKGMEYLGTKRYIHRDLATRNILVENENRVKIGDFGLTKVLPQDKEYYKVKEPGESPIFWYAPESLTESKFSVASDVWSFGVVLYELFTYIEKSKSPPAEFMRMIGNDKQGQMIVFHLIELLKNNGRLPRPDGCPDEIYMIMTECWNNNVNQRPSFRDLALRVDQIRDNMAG

[5] = biological target: JAK3 (Homo sapiens (Human), UniProt P52333); experiment: JAK Caliper Enzyme Assay at 1 mM ATP (JAK3); format: biochemical; details: Caliper assay at 1 mM ATP
Sequence of JAK3 (P52333 whole entry, species assumed): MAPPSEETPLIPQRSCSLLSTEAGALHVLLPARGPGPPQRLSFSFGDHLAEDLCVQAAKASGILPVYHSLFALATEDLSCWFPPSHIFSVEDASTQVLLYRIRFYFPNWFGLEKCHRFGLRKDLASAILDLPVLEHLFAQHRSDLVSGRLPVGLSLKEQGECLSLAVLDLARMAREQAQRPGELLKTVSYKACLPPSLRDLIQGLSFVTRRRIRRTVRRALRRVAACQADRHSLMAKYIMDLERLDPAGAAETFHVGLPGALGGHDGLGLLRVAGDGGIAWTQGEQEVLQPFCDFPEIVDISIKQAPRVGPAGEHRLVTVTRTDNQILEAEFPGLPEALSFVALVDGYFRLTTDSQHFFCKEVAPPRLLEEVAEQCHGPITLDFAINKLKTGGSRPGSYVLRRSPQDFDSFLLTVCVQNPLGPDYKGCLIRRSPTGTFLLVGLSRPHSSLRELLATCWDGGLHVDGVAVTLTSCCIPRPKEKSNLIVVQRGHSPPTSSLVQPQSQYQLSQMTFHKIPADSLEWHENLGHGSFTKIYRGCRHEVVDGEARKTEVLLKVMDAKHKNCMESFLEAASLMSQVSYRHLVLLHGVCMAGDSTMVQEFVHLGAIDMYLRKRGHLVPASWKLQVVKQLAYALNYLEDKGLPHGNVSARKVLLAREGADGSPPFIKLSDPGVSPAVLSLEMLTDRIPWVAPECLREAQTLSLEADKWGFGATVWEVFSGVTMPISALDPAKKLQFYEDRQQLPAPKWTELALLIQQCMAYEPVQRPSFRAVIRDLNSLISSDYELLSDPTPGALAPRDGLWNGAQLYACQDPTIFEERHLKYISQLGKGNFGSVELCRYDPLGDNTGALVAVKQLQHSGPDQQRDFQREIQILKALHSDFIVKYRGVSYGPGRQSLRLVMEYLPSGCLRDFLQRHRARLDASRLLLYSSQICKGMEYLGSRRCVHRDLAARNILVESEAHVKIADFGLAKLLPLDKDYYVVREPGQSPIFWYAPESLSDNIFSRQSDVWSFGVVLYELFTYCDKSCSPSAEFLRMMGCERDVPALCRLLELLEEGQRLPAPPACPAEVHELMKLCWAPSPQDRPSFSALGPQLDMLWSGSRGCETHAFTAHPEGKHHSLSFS

Sequence of JAK1 (P23458 whole entry, species assumed): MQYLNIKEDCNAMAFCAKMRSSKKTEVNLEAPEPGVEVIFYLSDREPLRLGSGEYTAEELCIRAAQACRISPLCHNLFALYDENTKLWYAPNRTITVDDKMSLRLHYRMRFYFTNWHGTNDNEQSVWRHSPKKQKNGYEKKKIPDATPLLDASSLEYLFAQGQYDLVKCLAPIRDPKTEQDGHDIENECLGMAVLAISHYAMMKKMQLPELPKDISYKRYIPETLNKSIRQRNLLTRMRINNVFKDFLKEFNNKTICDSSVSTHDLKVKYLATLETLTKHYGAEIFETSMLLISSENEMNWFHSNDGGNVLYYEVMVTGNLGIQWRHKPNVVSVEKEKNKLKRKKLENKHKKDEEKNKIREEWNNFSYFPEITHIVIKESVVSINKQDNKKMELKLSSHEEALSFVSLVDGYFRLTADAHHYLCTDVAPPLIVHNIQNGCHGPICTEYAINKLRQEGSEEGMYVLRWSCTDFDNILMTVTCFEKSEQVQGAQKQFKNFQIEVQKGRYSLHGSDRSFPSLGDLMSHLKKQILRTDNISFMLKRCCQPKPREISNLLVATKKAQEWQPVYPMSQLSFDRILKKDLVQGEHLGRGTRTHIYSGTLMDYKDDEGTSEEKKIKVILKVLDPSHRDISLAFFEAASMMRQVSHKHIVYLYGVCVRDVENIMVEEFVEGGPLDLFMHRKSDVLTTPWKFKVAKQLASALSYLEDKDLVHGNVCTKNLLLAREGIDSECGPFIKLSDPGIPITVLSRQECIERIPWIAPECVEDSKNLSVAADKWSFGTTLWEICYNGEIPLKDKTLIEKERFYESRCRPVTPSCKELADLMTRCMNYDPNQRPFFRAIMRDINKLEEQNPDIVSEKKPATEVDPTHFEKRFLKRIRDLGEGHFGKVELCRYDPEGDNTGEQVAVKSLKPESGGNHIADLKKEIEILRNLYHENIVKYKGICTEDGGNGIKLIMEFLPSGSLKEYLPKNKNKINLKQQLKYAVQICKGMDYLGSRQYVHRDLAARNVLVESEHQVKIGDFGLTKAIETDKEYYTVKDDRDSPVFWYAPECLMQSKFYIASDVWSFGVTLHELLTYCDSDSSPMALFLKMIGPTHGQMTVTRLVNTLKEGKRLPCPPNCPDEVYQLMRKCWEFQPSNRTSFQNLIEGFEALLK

IC50 [1] | IC50 ([3]; Homo sapiens) | Compound | IC50 [2] | IC50 [3] | IC50 [4] | IC50 [5]
10.4 nM | – | CNC(=O)c1n[nH]c2nc(-c3cc(F)c(O)cc3CC(F)(F)F)nc(NCc3cc(F)ccc3N(C)S(C)(=O)=O)c12 [Example 104, 4-((5-fluoro-2-(N-methylmethylsulfon-amido)benzyl)amino)-6-(5-fluoro-4-hydroxy-2-(2,2,2-trifluoroethyl)phenyl)-N-methyl-1H-pyrazolo[3,4-d]pyrimidine-3-carboxamide] | 1380 nM | 292 nM | 66.1 nM | 113 nM
25.5 nM | 72.4 nM | CCc1cc(O)cc(C)c1-c1cc2[nH]ncc2c(NCc2ccccc2N(C)S(C)(=O)=O)n1 [Example 156, N-(2-(((6-(2-Ethyl-4-hydroxy-6-methylphenyl)-1H-pyrazolo[4,3-c]pyridin-4-yl)amino)methyl)phenyl)-N-methylmethanesulfonamide] | 10000 nM | – | – | 177 nM
5.4 nM | 126 nM | CNC(=O)c1n[nH]c2nc(-c3cc(F)c(O)cc3CC(F)(F)F)nc(NCc3ccccc3N(C)S(C)(=O)=O)c12 [Example 94, 6-(5-Fluoro-4-hydroxy-2-(2,2,2-trifluoroethyl)phenyl)-N-methyl-4-((2-(N-methylmethylsulfonamido)benzyl)amino)-1H-pyrazolo[3,4-d]pyrimidine-3-carboxamide] | 503 nM | – | 27.7 nM | 71.2 nM
– | – | CN(c1ccccc1CNc1nc(-c2cc(F)c(O)cc2CC(F)(F)F)cc2[nH]nc(C(N)=O)c12)S(=O)(=O)c1ccccc1 [Example 26, 6-[5-fluoro-4-hydroxy-2-(2,2,2-trifluoroethyl)phenyl]-4-({2-[methyl(phen-ylsulfonyl)amino]ben-zyl}amino)-1H-pyrazolo[4,3-c]pyridine-3-carboxamide] | – | 124 nM | – | –
– | 3360 nM | CNC(=O)c1n[nH]c2nc(-c3cc(F)c(O)cc3CC(F)(F)F)nc(NCc3ccccc3N(CCO)S(C)(=O)=O)c12 [Example 102, 6-(5-fluoro-4-hydroxy-2-(2,2,2-trifluoroethyl)phenyl)-4-((2-(N-(2-hydroxyethyl)methylsulfonamido)benzyl)amino)-N-methyl-1H-pyrazolo[3,4-d]pyrimidine-3-carboxamide] | – | – | – | –
– | – | CCc1cc(O)c(F)cc1-c1cc2[nH]nc(C(=O)NC)c2c(NCc2ccccc2N(C)S(=O)(=O)c2ccccc2)n1 [Example 22, 6-(2-ethyl-5-fluoro-4-hydroxyphenyl)-N-methyl-4-({2-[methyl(phen-ylsulfonyl)amino]ben-zyl}amino)-1H-pyrazolo[4,3-c]pyridine-3-carboxamide] | – | 52.8 nM | – | –
– | – | CCc1cc(O)c(F)cc1-c1cc2[nH]nc(C(=O)NC)c2c(NCc2cc(C)ccc2N(C)S(C)(=O)=O)n1 [Example 21, 6-(2-ethyl-5-fluoro-4-hydroxyphenyl)-N-methyl-4-({5-methyl-2-[methyl(methylsulfon-yl)amino]benzyl}ami-no)-1H-pyrazolo[4,3-c]pyridine-3-carboxamide] | – | 35.6 nM | – | –
– | – | CCc1cc(O)c(F)cc1-c1cc2[nH]ncc2c(N(CCc2ccc(NS(C)(=O)=O)cc2)Cc2ccccc2N(C)S(C)(=O)=O)n1 [Example 130, N-[2-({[6-(2-ethyl-5-fluoro-4-hydroxyphenyl)-1H-pyrazolo[4,3-c]pyridin-4-yl](2-{4-[(methylsulfon-yl)amino]phenyl}ethyl)amino}methyl)phenyl]-N-methylmethanesulfonamide hydrochloride] | – | 729 nM | – | –
– | 2070 nM | CN(c1ccc(O)cc1CNc1nc(-c2cc(F)c(O)cc2CC(F)(F)F)nc2[nH]nc(C(N)=O)c12)S(C)(=O)=O [Example 97, 6-(5-Fluoro-4-hydroxy-2-(2,2,2-trifluoroethyl)phenyl)-4-((5-hydroxy-2-(N-methylmethylsulfonamido)benzyl)amino)-1H-pyrazolo[3,4-d]pyrimidine-3-carboxamide] | – | – | – | –
– | – | 6-[5-fluoro-4-hydroxy-2-(2,2,2-trifluoroethyl)phenyl]-4-({5-methoxy-2-[methyl(methylsulfonyl)amino]benzyl}amino)-N-methyl-1H-pyrazolo[4,3-c]pyridine-3-carboxamide [Example 50] | 10.5 nM | 321 nM | 10.7 nM | 47.4 nM
– | 7020 nM | CCN(c1ccc(O)cc1CNc1nc(-c2cc(F)c(O)cc2CC(F)(F)F)nc2[nH]nc(C(=O)NC)c12)S(=O)(=O)c1ccccc1 [Example 105, 4-((2-(N-Ethylphenylsulfonamido)-5-hydroxybenzyl)amino)-6-(5-fluoro-4-hydroxy-2-(2,2,2-trifluoroethyl)phenyl)-N-methyl-1H-pyrazolo[3,4-d]pyrimidine-3-carboxamide] | – | – | – | –
– | – | CS(=O)(=O)N(CCO)c1ccccc1CNc1nc(-c2cc(F)c(O)cc2CC(F)(F)F)cc2[nH]nc(C(N)=O)c12 [Example 27, 6-[5-fluoro-4-hydroxy-2-(2,2,2-trifluoroethyl)phenyl]-4-({2-[(2-hydroxyethyl)(methylsul-fonyl)amino]benzyl}amino)-1H-pyrazolo[4,3-c]pyridine-3-carboxamide] | – | 874 nM | – | –
– | – | CNC(=O)c1n[nH]c2cc(-c3cc(F)c(O)cc3CC(F)(F)F)nc(NCc3cc(O)ccc3N(C)S(=O)(=O)c3cccnc3)c12 [Example 54, 6-[5-fluoro-4-hydroxy-2-(2,2,2-trifluoroethyl)phenyl]-4-({5-hydroxy-2-[methyl(pyridin-3-ylsulfonyl)amino]ben-zyl}amino)-N-methyl-1H-pyrazolo[4,3-c]pyridine-3-carboxamide] | – | 135 nM | – | –
– | – | CNC(=O)c1n[nH]c2cc(-c3cc(F)c(O)cc3CC(F)(F)F)nc(NCc3ccccc3N(CCO)S(C)(=O)=O)c12 [Example 24, 6-[5-fluoro-4-hydroxy-2-(2,2,2-trifluoroethyl)phenyl]-4-({2-[(2-hydroxyethyl)-(methylsulfonyl)ami-no]benzyl}amino)-N-methyl-1H-pyrazolo[4,3-c]pyridine-3-carboxamide] | – | 226 nM | – | –
– | – | CNC(=O)c1n[nH]c2cc(-c3cc(F)c(O)cc3CC(F)(F)F)nc(NCc3cc(F)ccc3N(C)S(C)(=O)=O)c12 [Example 14, 6-[5-fluoro-4-hydroxy-2-(2,2,2-trifluoroethyl)phenyl]-4-({5-fluoro-2-[methyl(methylsulfon-yl)amino]benzyl}ami-no)-N-methyl-1H-pyrazolo[4,3-c]pyridine-3-carboxamide] | – | 20.7 nM | – | –
5.3 nM | 31.3 nM | CCc1cc(O)c(F)cc1-c1cc2[nH]nc(-c3nc(C)c(C)[nH]3)c2c(NCc2ccccc2N(C)S(C)(=O)=O)n1 [Example 158, N-[2-({[3-(4,5-Dimethyl-1H-imidazol-2-yl)-6-(2-ethyl-5-fluoro-4-hydroxyphenyl)-1H-pyrazolo[4,3-c]pyridin-4-yl]amino}methyl)phenyl]-N-methylmethanesulfonamide] | 33.3 nM | – | 27.8 nM | 114 nM

Compound | IC50 [1] | IC50 ([3]; Homo sapiens) | IC50 [2] | IC50 [3] | IC50 [4] | IC50 [5]
CCc1cc(O)c(F)cc1-c1nc(NCc2ccccc2N(C)S(C)(=O)=O)c2cn[nH]c2n1 [Example 155, N-[2-({[6-(2-Ethyl-5-fluoro-4-hydroxyphenyl)-1H-pyrazolo[3,4-d]pyrimidin-4-yl]amino}methyl)phenyl]-N-methylmethanesulfonamide hydrochloride] | 1.2 nM | 30.1 nM | 61 nM | – | 5 nM | 15.5 nM
CNC(=O)c1n[nH]c2cc(-c3cc(F)c(O)cc3CC(F)(F)F)nc(NCc3ccccc3N(C)S(=O)(=O)N(C)C)c12 [Example 57] | 21.1 nM | – | 149 nM | 60.4 nM | 93.4 nM | 409 nM
CNC(=O)c1n[nH]c2cc(-c3cc(F)c(O)cc3CC(F)(F)F)nc(NCc3ccccc3N(C)S(=O)(=O)c3cn(C)cn3)c12 [Example 59] | 5.3 nM | – | 22.6 nM | 290 nM | 23.5 nM | 112 nM
